{"source": "patent US20250389714A1", "about": "“PHARMACEUTICAL COMPOSITION FOR TREATING DISEASES RELATED TO TAUOPATHY” (SEOUL NATIONAL UNIVERSITY R&DB FOUNDATION, priority 2021, published 2025)", "molecules": {"B1": {"name": "mouse RAGE, endogenous, on primary cultured WT mouse neurons (against Rage KO neurons) (receptor, UniProt Q62151 23-402, looked up)", "chain": "GQNITARIGEPLVLSCKGAPKKPPQQLEWKLNTGRTEAWKVLSPQGGPWDSVARILPNGSLLLPATGIVDEGTFRCRATNRRGKEVKSNYRVRVYQIPGKPEIVDPASELTASVPNKVGTCVSEGSYPAGTLSWHLDGKLLIPDGKETLVKEETRRHPETGLFTLRSELTVIPTQGGTHPTFSCSFSLGLPRRRPLNTAPIQLRVREPGPPEGIQLLVEPEGGIVAPGGTVTLTCAISAQPPPQVHWIKDGAPLPLAPSPVLLLPEVGHEDEGTYSCVATHPSHGPQESPPVSIRVTETGDEGPAEGSVGESGLGTLALALGILGGLGVVALLVGAILWRKRQPRREERKAPESQEDEEERAELNQSEEAEMPENGAGGP", "notes": "whole, on cells"}}, "key": {"[1]": {"system": "RAGE-expressing SH-SY5Y cells", "experiment": "Tau infection (intracellular DyLight 488-tau oligomers) in RAGE-expressing SH-SY5Y cells", "format": "cell-based, human", "conditions": "increasing concentrations of antagonist, 4 hours, 500 nM DyLight 488-tau oligomers", "experimental": "(right) for 4 hours in the presence of 500 nM DyLight 488-tau or 125 nM FITC-Aβ42 oligomers. Fluorescence images were acquired, and intracellular DyLight 488 and FITC intensities were measured. The data were presented as mean±SEM (n=4)."}, "rTg4510 mice": {"system": "rTg4510 mice", "experiment": "Behavioral tests (Y-maze, novel object recognition, passive avoidance) in rTg4510 mice", "format": "in vivo, mouse", "conditions": "1 mg/kg/day intraperitoneally, daily for 2.5 months from 2 months of age; tests at 4.5 months"}, "[2]": {"system": "primary cortical neurons or hippocampal neurons", "experiment": "Tau infection assay in primary cultured neurons", "conditions": "500 nM DyLight 488-tau oligomers, 24 hours"}, "RAGE": {"target": "T1, RAGE (Homo sapiens, UniProt Q15109)", "T1 construct": "RFP-tagged RAGE full-length (FL) or cytoplasmic domain deletion mutants (ΔCyto); expressed in transfected cells; host or cells: SH-SY5Y human neuroblastoma cells", "T1 sequence (Q15109 23-404)": "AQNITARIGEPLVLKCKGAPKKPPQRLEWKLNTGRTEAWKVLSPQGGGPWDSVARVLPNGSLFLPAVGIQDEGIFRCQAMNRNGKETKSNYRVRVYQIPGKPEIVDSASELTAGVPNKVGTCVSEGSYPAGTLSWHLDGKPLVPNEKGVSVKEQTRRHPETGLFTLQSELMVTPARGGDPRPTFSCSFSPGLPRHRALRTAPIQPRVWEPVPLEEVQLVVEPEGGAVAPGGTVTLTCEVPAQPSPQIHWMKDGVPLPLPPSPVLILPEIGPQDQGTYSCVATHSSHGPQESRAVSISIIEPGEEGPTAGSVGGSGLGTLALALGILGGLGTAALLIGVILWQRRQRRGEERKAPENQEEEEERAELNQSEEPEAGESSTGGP", "experiment": "Cell binding assay and calculation of dissociation constant (Kd) for RAGE binding", "conditions": "monomer equivalents of total Aβ42 or total tau; biotin-labeled oligomers, RAGE-overexpressing SH-SY5Y cells, 2 hours", "experimental": "FIG. 2c is a graph showing the results of analyzing RAGE binding affinities of tau oligomers (oTau) and Aβ42 oligomers (oAβ42). RAGE-overexpressing SH-SY5Y cells were treated with biotin-tau or Aβ42 oligomers for 2 hours, and the cell-bound biotin signal intensities in FIG. 12a were measured. The data were presented as mean±SEM (n=3-5), and the Kd of binding values were obtained from nonlinear regression analysis of saturated binding.\nThe purified tau monomers of the present invention were biotinylated using the Ez-Link Sulfo-NHS-LC-Biotinylation kit (Thermo Scientific) and then fibrillated as described above to form oligomers and fibrils. SH-SY5Y cells were transfected with RAGE cDNA for 24 hours and incubated with biotin-tau protein for 2 hours. Primary cortical neurons from WT and Rage KO mice (DIV 7) were then incubated with various concentrations of biotin-tau oligomers for 24 hours to estimate the Kd value for tau binding to RAGE. Cells were washed with Tris-buffered saline (TBS) and fixed with 4% paraformaldehyde for 20 min. The cells were then blocked with 10% FBS and 0.1% Triton X-100 in TBS for 1 hour and incubated with streptavidin-alkaline phosphatase conjugate (1:2000, Roche) at 4° C. for 16 hours. After washing with TBS, bound biotin-tau was visualized for 10 min using the […] liquid substrate system (Sigma-Aldrich). Images were acquired using INCell Analyzer 2000, and cell-bound biotin signals were measured using Image J. Kd values estimated for RAGE-binding were obtained from nonlinear regression analysis of saturated binding using Prism (GraphPad Software)."}, "[3]": {"target": "human RAGE (receptor for advanced glycation end products), full-length, overexpressed in SH-SY5Y cells (human) (UniProt Q15109)", "sequence (Q15109 23-404)": "as above", "experiment": "cell-based or functional assay"}, "[4]": {"system": "RAGE-overexpressing SH-SY5Y cells", "experiment": "Competition of tau oligomers and Aβ42 oligomers for uptake in RAGE-overexpressing SH-SY5Y cells", "format": "cell-based, human", "conditions": "increasing concentrations of DyLight 594-tau oligomers with 125 nM FITC-Aβ42 oligomers, 2 hours", "experimental": "FIG. 12b is a graph showing the results of analyzing […] and FITC intensities in RAGE-overexpressing SH-SY5Y cells. The cells were treated with increasing concentrations of DyLight 594-tau oligomers (red) in the presence of 125 nM FITC-Aβ42 oligomers (green) for 2 hours. Fluorescence images were acquired, and intracellular DyLight 594 and FITC intensities were measured. The data were presented as mean±SEM (n=3)."}, "[5]": {"target": "T2, high molecular weight (HMW, 10-20 units) tau oligomers of 6xHis tagged human 0N4R tau (human, UniProt P10636-6 1-383, biotinylated or labelled with DyLight 488, depending on the assay; sites not stated)", "T2 construct": "also called HMW tau oligomers; not shown: 6xHis tag from the pET-His vector", "T2 sequence (P10636 other isoform, or with tags, fused parts or gaps)": "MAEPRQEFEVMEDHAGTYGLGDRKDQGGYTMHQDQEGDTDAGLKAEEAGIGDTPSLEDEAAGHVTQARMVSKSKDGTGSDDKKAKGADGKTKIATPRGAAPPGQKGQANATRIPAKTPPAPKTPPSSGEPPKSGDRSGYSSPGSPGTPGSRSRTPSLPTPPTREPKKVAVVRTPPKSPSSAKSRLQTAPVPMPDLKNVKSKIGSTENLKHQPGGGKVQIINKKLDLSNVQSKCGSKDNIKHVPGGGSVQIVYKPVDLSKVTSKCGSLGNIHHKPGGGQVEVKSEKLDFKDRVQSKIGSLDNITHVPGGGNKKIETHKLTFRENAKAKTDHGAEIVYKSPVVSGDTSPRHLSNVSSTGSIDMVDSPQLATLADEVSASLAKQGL", "experiment": "cell binding assay: biotin-labelled HMW tau oligomers for 24 h on primary cortical neurons, streptavidin-alkaline phosphatase, BCIP/NBT; nonlinear regression of saturation binding; dashed ΔRage curve, whose points equal WT minus Rage KO; concentration as tau monomer equivalent"}, "[6]": {"target": "T3, low molecular weight (LMW, 2-4 units) tau oligomers of 6xHis tagged human 0N4R tau (human, UniProt P10636-6 1-383, biotinylated or labelled with DyLight 488, depending on the assay; sites not stated)", "T3 construct": "also called LMW tau oligomers; not shown: 6xHis tag from the pET-His vector", "T3 sequence (P10636 other isoform, or with tags, fused parts or gaps)": "as above", "experiment": "cell binding assay: biotin-labelled LMW tau oligomers for 24 h on primary cortical neurons, streptavidin-alkaline phosphatase, BCIP/NBT; nonlinear regression of saturation binding; dashed ΔRage curve, whose points equal WT minus Rage KO; concentration as tau monomer equivalent"}}, "note": "Entries after “also recorded” stand apart in the source; their conditions may differ.", "data": [{"molecule": "O=C(c1ccc(Cl)cc1)N(Cc1ccccc1)C1CCCCC1", "note": "[FPS-ZM1]", "values": [{"measurement": "tau infection into RAGE-expressing SH-SY5Y cells", "setting": "[1]", "value": "inhibited tau infection"}, {"measurement": "cognitive function (spatial and working memory) of rTg4510 mice", "setting": "rTg4510 mice", "value": "significantly alleviated cognitive impairment; also recorded: significant retention of spatial and working memory; also recorded: ameliorated the behavioral impairment"}, {"measurement": "tau infection into neurons", "setting": "[2]; WT cortical neurons, 1 μM antagonist", "value": "inhibited tau infection; also recorded: reduces neuronal tau infection"}]}, {"molecule": "Aβ42 oligomers: oligomers prepared from synthetic biotin- or FITC-labeled Aβ42 peptide (rPeptide)", "values": [{"measurement": "Kd", "setting": "RAGE", "value": 17, "unit": "nM"}]}, {"molecule": "DyLight 488-tau aggregates (His-tagged human tau aggregated with heparin, used in the cDNA screen) (from UniProt P10636 1-383) (ligand)", "values": [{"measurement": "Intracellular DyLight 488 Intensities (AU)", "setting": "[3]", "value": 9.55, "unit": "AU"}]}, {"molecule": "HMW tau oligomers: high molecular weight tau oligomers (10-20 units) of recombinant human 0N4R tau", "values": [{"measurement": "Kd", "setting": "RAGE", "value": 51, "unit": "nM"}]}, {"molecule": "LMW tau oligomers: low molecular weight tau oligomers (2-4 units) of recombinant human 0N4R tau", "values": [{"measurement": "Kd", "setting": "RAGE", "value": 205, "unit": "nM"}]}, {"molecule": "heparin", "values": [{"measurement": "tau oligomer transfection into Rage KO neurons", "setting": "[2]; Rage KO neurons, 15 U/ml heparin", "value": "efficiently blocked"}, {"measurement": "neuronal uptake of tau oligomers into WT neurons", "setting": "[2]; WT neurons, 15 U/ml heparin", "value": "reduced neuronal uptake of tau oligomers"}]}, {"molecule": "tau oligomers: oligomers of recombinant 6×His tagged human 0N4R tau formed with heparin", "values": [{"measurement": "intracellular transfection of Aβ42 oligomers", "setting": "[4]", "value": "efficiently reduced the intracellular transfection of Aβ42 oligomers"}]}, {"molecule": "B1", "values": [{"measurement": "Kd", "setting": "[5]", "value": 25, "unit": "nM"}, {"measurement": "Kd", "setting": "[6]", "value": 43.5, "unit": "nM"}]}]}
